Measurements: ChEMBL document CHEMBL1681651, “A broad spectrum anticancer nucleoside with selective toxicity against human colon cells in vitro” (2011)

How the values were obtained:
Type in all cases: functional
786-0 = assay: Growth inhibition of human 786-0 cells assessed as cell growth at 1 uM after 48 hrs by SRB assay; settings: 786-0, 48 h, read-out: Activity
MOLT-4 = assay: Growth inhibition of human MOLT4 cells assessed as cell growth at 10 uM after 48 hrs by SRB assay; settings: MOLT-4, 48 h, read-out: Activity
EKVX = assay: Growth inhibition of human EKVX cells assessed as cell growth at 10 uM after 48 hrs by SRB assay; settings: read-out: Activity
HOP-62 [1] = assay: Growth inhibition of human HOP62 cells assessed as cell growth at 10 uM after 48 hrs by SRB assay; settings: HOP-62, 48 h, read-out: Activity
NCI-H460 [2] = assay: Growth inhibition of human NCI-H460 cells after 48 hrs by […] growth inhibition assay; settings: NCI-H460, 48 h
NCI-H522 [3] = assay: Growth inhibition of human NCI-H522 cells after 48 hrs by […] growth inhibition assay; settings: NCI-H522, 48 h
SNB-19 = assay: Growth inhibition of human SNB19 cells after 48 hrs by […] growth inhibition assay; settings: SNB-19, 48 h
U-251 = assay: Growth inhibition of human U251 cells after 48 hrs by […] growth inhibition assay; settings: U-251, 48 h
OVCAR-3 = assay: Growth inhibition of human OVCAR3 cells after 48 hrs by […] growth inhibition assay; settings: OVCAR-3, 48 h
OVCAR-8 [4] = assay: Growth inhibition of human OVCAR8 cells after 48 hrs by […] growth inhibition assay; settings: OVCAR-8, 48 h
SN12C = assay: Growth inhibition of human SN12C cells after 48 hrs by […] growth inhibition assay
T47D = assay: Growth inhibition of human T47D cells after 48 hrs by […] growth inhibition assay
CCRF-CEM = assay: Growth inhibition of human CCRF-CEM cells assessed as cell growth at 0.1 uM after 48 hrs by SRB assay; settings: read-out: Activity
NCI-H522 [5] = assay: Growth inhibition of human NCI-H522 cells assessed as cell growth at 0.1 uM after 48 hrs by SRB assay; settings: NCI-H522, 48 h, read-out: Activity
Malme-3M [6] = assay: Growth inhibition of human MALME-3M cells assessed as cell growth at 0.1 uM after 48 hrs by SRB assay; settings: read-out: Activity
M14 = assay: Growth inhibition of human M14 cells assessed as cell growth at 0.1 uM after 48 hrs by SRB assay; settings: M14, 48 h, read-out: Activity
MDA-MB-435 = assay: Growth inhibition of human MDA-MB-435 cells assessed as cell growth at 0.1 uM after 48 hrs by SRB assay; settings: MDA-MB-435, 48 h, read-out: Activity
Malme-3M [7] = assay: Growth inhibition of human MALME-3M cells assessed as cell growth at 10 uM after 48 hrs by SRB assay; settings: read-out: Activity
UACC-257 [8] = assay: Growth inhibition of human UACC257 cells assessed as cell growth at 10 uM after 48 hrs by SRB assay; settings: UACC-257, 48 h, read-out: Activity
OVCAR-8 [9] = assay: Growth inhibition of human OVCAR8 cells assessed as cell growth at 10 uM after 48 hrs by SRB assay; settings: OVCAR-8, 48 h, read-out: Activity
HOP-92 = assay: Growth inhibition of human HOP92 cells assessed as cell growth at 100 uM after 48 hrs by SRB assay; settings: HOP-92, 48 h, read-out: Activity
NCI-H460 [10] = assay: Growth inhibition of human NCI-H460 cells assessed as cell growth at 100 uM after 48 hrs by SRB assay; settings: NCI-H460, 48 h, read-out: Activity
COLO 205 = assay: Growth inhibition of human COLO205 cells assessed as cell growth at 100 uM after 48 hrs by SRB assay; settings: COLO 205, 48 h, read-out: Activity
UACC-257 [11] = assay: Growth inhibition of human UACC257 cells assessed as cell growth at 100 uM after 48 hrs by SRB assay; settings: UACC-257, 48 h, read-out: Activity
SK-OV-3 = assay: Growth inhibition of human SKOV3 cells assessed as cell growth at 100 uM after 48 hrs by SRB assay; settings: SK-OV-3, 48 h, read-out: Activity
SK-MEL-5 = assay: Growth inhibition of human SK-MEL-5 cells assessed as cell growth at 1 mM after 48 hrs by SRB assay; settings: SK-MEL-5, 48 h, read-out: Activity
TK-10 = assay: Growth inhibition of human TK10 cells assessed as cell growth at 1 mM after 48 hrs by SRB assay; settings: TK-10, 48 h, read-out: Activity
HOP-62 [12] = assay: Growth inhibition of human HOP62 cells assessed as cell growth at 1 uM after 48 hrs by SRB assay; settings: HOP-62, 48 h, read-out: Activity
NCI-H522 [13] = assay: Growth inhibition of human NCI-H522 cells assessed as cell growth at 1 uM after 48 hrs by SRB assay; settings: NCI-H522, 48 h, read-out: Activity
KM12 = assay: Growth inhibition of human KM12 cells assessed as cell growth at 1 uM after 48 hrs by SRB assay; settings: KM12, 48 h, read-out: Activity
SF-295 = assay: Growth inhibition of human SF295 cells assessed as cell growth at 1 uM after 48 hrs by SRB assay; settings: SF-295, 48 h, read-out: Activity
Malme-3M [14] = assay: Growth inhibition of human MALME-3M cells assessed as cell growth at 1 uM after 48 hrs by SRB assay; settings: read-out: Activity
[15] = read-out: LC50 (the source's name)
[16] = read-out: pLC50 (the source's name) (converted)

SMILES: CNC(=O)NC[C@H]1O[C@@H](n2cnc3c(NC(=O)Nc4ccccc4)ncnc32)[C@H](O[Si](C)(C)C(C)(C)C)[C@@H]1CC(=O)N(C)OC
- growth at 1 µM (786-0): 92%
- growth at 10 µM (MOLT-4): 78%
- growth at 10 µM (EKVX): 95%
- growth at 10 µM (HOP-62 [1]): 86%
- GI50 (NCI-H460 [2]; read-out: GI50): 7.49 µM
- CC50 (NCI-H460 [2]; [15]): > 100 µM
- TGI (NCI-H460 [2]; read-out: TGI): > 100 µM
- GI50 (NCI-H460 [2]; read-out: pGI50 (converted)): 7.41 µM
- CC50 (NCI-H460 [2]; [16]): > 100 µM
- TGI (NCI-H460 [2]; read-out: pTGI (converted)): > 100 µM
- GI50 (NCI-H522 [3]; read-out: GI50): 11.1 µM
- CC50 (NCI-H522 [3]; [15]): > 100 µM
- TGI (NCI-H522 [3]; read-out: TGI): > 100 µM
- GI50 (NCI-H522 [3]; read-out: pGI50 (converted)): 11 µM
- CC50 (NCI-H522 [3]; [16]): > 100 µM
- TGI (NCI-H522 [3]; read-out: pTGI (converted)): > 100 µM
- GI50 (SNB-19; read-out: GI50): > 100 µM
- CC50 (SNB-19; [15]): > 100 µM
- TGI (SNB-19; read-out: TGI): > 100 µM
- GI50 (SNB-19; read-out: pGI50 (converted)): > 100 µM
- CC50 (SNB-19; [16]): > 100 µM
- TGI (SNB-19; read-out: pTGI): > 100 µM
- GI50 (U-251; read-out: GI50): 5.66 µM
- CC50 (U-251; [15]): > 100 µM
- TGI (U-251; read-out: TGI): > 100 µM
- GI50 (U-251; read-out: pGI50 (converted)): 5.62 µM
- CC50 (U-251; [16]): > 100 µM
- TGI (U-251; read-out: pTGI (converted)): > 100 µM
- GI50 (OVCAR-3; read-out: GI50): 7.11 µM
- CC50 (OVCAR-3; [15]): > 100 µM
- TGI (OVCAR-3; read-out: TGI): > 100 µM
- GI50 (OVCAR-3; read-out: pGI50 (converted)): 7.08 µM
- CC50 (OVCAR-3; [16]): > 100 µM
- TGI (OVCAR-3; read-out: pTGI (converted)): > 100 µM
- GI50 (OVCAR-8 [4]; read-out: GI50): 9.02 µM
- CC50 (OVCAR-8 [4]; [15]): > 100 µM
- TGI (OVCAR-8 [4]; read-out: TGI): > 100 µM
- GI50 (OVCAR-8 [4]; read-out: pGI50 (converted)): 9.12 µM
- CC50 (OVCAR-8 [4]; [16]): > 100 µM
- TGI (OVCAR-8 [4]; read-out: pTGI (converted)): > 100 µM
- GI50 (SN12C; read-out: GI50): 85.3 µM
- CC50 (SN12C; [15]): > 100 µM
- TGI (SN12C; read-out: TGI): > 100 µM
- GI50 (SN12C; read-out: pGI50 (converted)): 85.1 µM
- CC50 (SN12C; [16]): > 100 µM
- TGI (SN12C; read-out: pTGI (converted)): > 100 µM
- GI50 (T47D; read-out: GI50): 13.9 µM
- CC50 (T47D; [15]): > 100 µM
- TGI (T47D; read-out: TGI): > 100 µM
- GI50 (T47D; read-out: pGI50 (converted)): 13.8 µM
- CC50 (T47D; [16]): > 100 µM
- TGI (T47D; read-out: pTGI (converted)): > 100 µM
- growth at 0.1 µM (CCRF-CEM): 101%
- growth at 0.1 µM (NCI-H522 [5]): 90%
- growth at 0.1 µM (Malme-3M [6]): 103%
- growth at 0.1 µM (M14): 98%
- growth at 0.1 µM (MDA-MB-435): 100%
- growth at 10 µM (Malme-3M [7]): 93%
- growth at 10 µM (UACC-257 [8]): 102%
- growth at 10 µM (OVCAR-8 [9]): 103%
- growth at 100 µM (HOP-92): 27%
- growth at 100 µM (NCI-H460 [10]): 44%
- growth at 100 µM (COLO 205): 55%
- growth at 100 µM (UACC-257 [11]): 65%
- growth at 100 µM (SK-OV-3): 82%
- growth at 1000 µM (SK-MEL-5): 11%
- growth at 1000 µM (TK-10): 17%
- growth at 1 µM (HOP-62 [12]): 88%
- growth at 1 µM (NCI-H522 [13]): 87%
- growth at 1 µM (KM12): 108%
- growth at 1 µM (SF-295): 93%
- growth at 1 µM (Malme-3M [14]): 88%
